Measured values: ChEMBL document CHEMBL1201862, “PubChem BioAssay data set” (2004)
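All cell lines were grown in 96-well plates and treated with compound for 48 hours. GI50 = concentration required for 50% inhibition of growth.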 Calls of active or inactive are those of the source. Rule as the data show it: active = GI50 up to about 1.1 µM and inactive = higher. Where a SMILES comes first, the peptide text is derived from it. [ ]: non-standard residue; d: D form. The star is where a group is joined. Bn2Val = CC(C)[C@@H](C(=O)*)N(Cc1ccccc1)Cc1ccccc1; NH(4-F-benzyl) = Fc1ccc(CN*)cc1; NMeV = CN[C@H](C(=O)O)C(C)C; dNMeA = CN[C@H](C)C(=O)O

What was measured:
Assay in all cases: NCI tumour cell line growth inhibition, 48 h
RPMI-8226 = test system: RPMI-8226
Malme-3M = test system: Malme-3M
CCRF-CEM = test system: CCRF-CEM
SF-268 = test system: SF-268
OVCAR-5 = test system: OVCAR-5
ACHN = test system: ACHN
SN12C = test system: SN12C
CAKI-1 = test system: CAKI-1
SF-539 = test system: SF-539
NCI-H226 = test system: NCI-H226
MDA-MB-231 = test system: MDA-MB-231
HCT-116 = test system: HCT-116
A549 = test system: A549
OVCAR-8 = test system: OVCAR-8
KM12 = test system: KM12
SK-MEL-2 = test system: SK-MEL-2
SR = test system: SR
COLO 205 = test system: COLO 205
OVCAR-4 = test system: OVCAR-4
UO-31 = test system: UO-31

| Compound | GI50 (RPMI-8226) | GI50 (Malme-3M) | GI50 (CCRF-CEM) | GI50 (SF-268) | GI50 (OVCAR-5) | GI50 (ACHN) | GI50 (SN12C) | GI50 (CAKI-1) | GI50 (SF-539) | GI50 (NCI-H226) | GI50 (MDA-MB-231) | GI50 (HCT-116) | GI50 (A549) | GI50 (OVCAR-8) | GI50 (KM12) | GI50 (SK-MEL-2) | GI50 (SR) | GI50 (COLO 205) | GI50 (OVCAR-4) | GI50 (UO-31) |
| --- | --- | --- | --- | --- | --- | --- | --- | --- | --- | --- | --- | --- | --- | --- | --- | --- | --- | --- | --- | --- |
| Nc1ncnc2c1nc(Cl)n2C1OC(CO)C(O)C1O (stereo not drawn) | 1.44 µM (inactive) | 27.2 µM (inactive) | 0.607 µM (active) | 12.2 µM (inactive) | 2.28 µM (inactive) | 0.489 µM (active) | 1.88 µM (inactive) | 1.21 µM (inactive) | 4.69 µM (inactive) | 1.63 µM (inactive) | 6.95 µM (inactive) | 0.352 µM (active) | 0.991 µM (active) | 1.11 µM (active) | 2.04 µM (inactive) | 2.02 µM (inactive) | 1.13 µM (inactive) | 1.11 µM (active) | 5.07 µM (inactive) | 0.906 µM (active) |
| CC1=NC(=Cc2cc(Br)cc(Br)c2)C(=O)N1n1c(-c2ccccc2)nc2ccccc2c1=O | > 100 µM (inactive) | > 100 µM (inactive) | > 100 µM (inactive) | > 100 µM (inactive) | > 100 µM (inactive) | > 100 µM (inactive) | > 100 µM (inactive) | > 100 µM (inactive) | > 100 µM (inactive) | > 100 µM (inactive) | > 100 µM (inactive) | > 100 µM (inactive) | > 100 µM (inactive) | > 100 µM (inactive) | > 100 µM (inactive) | > 100 µM (inactive) | 55.2 µM (inactive) | > 100 µM (inactive) | > 100 µM (inactive) | > 100 µM (inactive) |
| CC1=NN=C(C)C1/N=N/c1ccc2[nH]c(C)nc2c1 | 13.7 µM (inactive) | 6.85 µM (inactive) | 32.3 µM (inactive) | 10.9 µM (inactive) | 26.2 µM (inactive) | 7.46 µM (inactive) | > 52 µM (inactive) | 5.02 µM (inactive) | 26.9 µM (inactive) | 3.84 µM (inactive) | 28.6 µM (inactive) | 10.9 µM (inactive) | 27.4 µM (inactive) | 15.9 µM (inactive) | 35.4 µM (inactive) | 8.07 µM (inactive) | 5.41 µM (inactive) | 29.6 µM (inactive) | 58.1 µM (inactive) | 19.2 µM (inactive) |
| COc1ccc2[nH]c3c(C)c4ccnc(NCCCN(C)CCCNC(=O)NCCCN(C)CCCNc5nccc6c(C)c7[nH]c8ccc(OC)cc8c7c(C)c56)c4c(C)c3c2c1 | 0.564 µM (active) | 0.569 µM (active) | 0.147 µM (active) | 0.551 µM (active) | 0.843 µM (active) | 0.352 µM (active) | 0.269 µM (active) | 0.716 µM (active) | 0.314 µM (active) | 0.526 µM (active) | 0.403 µM (active) | 0.208 µM (active) | 0.249 µM (active) | 0.638 µM (active) | 1.03 µM (active) | 1.35 µM (inactive) | 0.102 µM (active) | 0.324 µM (active) | 0.596 µM (active) | 0.881 µM (active) |
| CC(C)[C@H](NC(=O)[C@H](C(C)C)N(Cc1ccccc1)Cc1ccccc1)C(=O)N(C)[C@H](C(=O)N1CCC[C@H]1C(=O)N(C)[C@H](C)C(=O)NCc1ccc(F)cc1)C(C)C (Bn2Val-V[NMeV]P[dNMeA]-{NH(4-F-benzyl)}) | 3.27 µM (inactive) | 3.63 µM (inactive) | 3.65 µM (inactive) | 3.19 µM (inactive) | 3.59 µM (inactive) | 3.33 µM (inactive) | 3.15 µM (inactive) | 5.13 µM (inactive) | 2.71 µM (inactive) | 2.65 µM (inactive) | 3.55 µM (inactive) | 2.97 µM (inactive) | 3.3 µM (inactive) | 4.01 µM (inactive) | 4.24 µM (inactive) | 2.12 µM (inactive) | 2.14 µM (inactive) | 1.74 µM (inactive) | 4.28 µM (inactive) | 2.19 µM (inactive) |
| O=C1/C(=C\c2ccc([N+](=O)[O-])cc2)CS(=O)(=O)C/C1=C/c1ccc([N+](=O)[O-])cc1 | 0.0942 µM (active) | 0.41 µM (active) | 0.264 µM (active) | 0.773 µM (active) | 1.36 µM (inactive) | 0.705 µM (active) |  | 1.4 µM (inactive) | 0.189 µM (active) | 2.83 µM (inactive) | 0.193 µM (active) | 0.288 µM (active) | 1.85 µM (inactive) | 0.107 µM (active) | 0.327 µM (active) | 1.17 µM (inactive) | 0.03 µM (active) | 0.188 µM (active) | 0.342 µM (active) | 0.176 µM (active) |
| c1ccc2c(c1)c1c(n2CCOCCN2CCCC2)CCCC1 | 18.2 µM (inactive) | 17.1 µM (inactive) | 20.9 µM (inactive) | 29 µM (inactive) | 17.8 µM (inactive) | 20.1 µM (inactive) | 17.5 µM (inactive) | 27.2 µM (inactive) | 14.5 µM (inactive) | 22.4 µM (inactive) | 16.4 µM (inactive) | 17.1 µM (inactive) | 28.1 µM (inactive) | 22.4 µM (inactive) | > 10 µM (inactive) | 16.4 µM (inactive) | 17.2 µM (inactive) | 19.5 µM (inactive) | 16.8 µM (inactive) | 12.8 µM (inactive) |
| Cc1ccc(NC2=NCCO2)c2c1CCC2 | 34.8 µM (inactive) | 27.8 µM (inactive) | 37.2 µM (inactive) | 41.8 µM (inactive) | 26 µM (inactive) | 85.3 µM (inactive) | 45 µM (inactive) | > 100 µM (inactive) | 22 µM (inactive) | 32.4 µM (inactive) | 19.7 µM (inactive) | 15.3 µM (inactive) | 41.7 µM (inactive) | 35.1 µM (inactive) | 30.3 µM (inactive) | 20 µM (inactive) | 22.1 µM (inactive) | 23.6 µM (inactive) | 48.9 µM (inactive) | > 100 µM (inactive) |
| CC1OC(OC2C(CO)OC(O[C@H]3CC[C@@]4(C)C(=CC[C@H]5[C@@H]6C[C@@H]7O[C@](O)(CC[C@H](C)COC8OC(CO)C(O)C(O)C8O)[C@@H](C)[C@@H]7[C@@]6(C)CC[C@@H]54)C3)C(OC3OC(C)C(O)C(O)C3O)C2O)C(O)C(O)C1O (stereo partly drawn) | 6.25 µM (inactive) | 5.6 µM (inactive) | 1.42 µM (inactive) | 3.36 µM (inactive) | 10.8 µM (inactive) | 14.3 µM (inactive) | 10 µM (inactive) | 1.77 µM (inactive) | 2.82 µM (inactive) | 9.62 µM (inactive) | 8.55 µM (inactive) | 3.72 µM (inactive) | 2.35 µM (inactive) | 4.06 µM (inactive) | 2.36 µM (inactive) | 6.21 µM (inactive) | > 100 µM (inactive) | 5.01 µM (inactive) | 7.96 µM (inactive) | 3.63 µM (inactive) |
| O=C(NCCCCl)c1c(O)c2ccccc2[nH]c1=O | > 100 µM (inactive) | > 100 µM (inactive) | > 100 µM (inactive) | > 72.1 µM (inactive) | > 100 µM (inactive) | > 100 µM (inactive) | > 100 µM (inactive) | > 100 µM (inactive) | > 54 µM (inactive) | > 100 µM (inactive) | > 100 µM (inactive) | > 100 µM (inactive) | > 100 µM (inactive) | > 100 µM (inactive) | > 100 µM (inactive) | > 94 µM (inactive) | > 100 µM (inactive) | > 100 µM (inactive) | > 100 µM (inactive) | > 100 µM (inactive) |
| O=C(O)c1cc2ccccc2c(O)c1O | > 52.2 µM (inactive) | 1.8 µM (inactive) | 5.75 µM (inactive) | 17.2 µM (inactive) | 16.9 µM (inactive) | 16.9 µM (inactive) | 16.6 µM (inactive) | 17.3 µM (inactive) | 22.8 µM (inactive) | 13.7 µM (inactive) | 17.7 µM (inactive) | 16.8 µM (inactive) | 19.8 µM (inactive) | 12.6 µM (inactive) | 16.3 µM (inactive) | 1.03 µM (active) | > 45.4 µM (inactive) | 16.8 µM (inactive) | 19 µM (inactive) | 20.5 µM (inactive) |
| Nc1[nH]c(=S)[nH]c(=O)c1/N=N/c1c(Br)cc(S(N)(=O)=O)cc1Br | > 100 µM (inactive) | > 100 µM (inactive) | > 100 µM (inactive) | > 100 µM (inactive) | > 100 µM (inactive) | > 100 µM (inactive) | > 100 µM (inactive) | > 100 µM (inactive) | > 100 µM (inactive) | > 100 µM (inactive) | > 100 µM (inactive) | > 100 µM (inactive) | > 100 µM (inactive) | > 100 µM (inactive) | > 100 µM (inactive) | > 100 µM (inactive) | > 100 µM (inactive) | > 100 µM (inactive) | > 100 µM (inactive) | > 100 µM (inactive) |
| COc1cc(OCc2nc3cc(C(F)(F)F)ccc3nc2-c2ccccc2)cc(OC)c1OC | 15.5 µM (inactive) | > 100 µM (inactive) | > 100 µM (inactive) | > 100 µM (inactive) | > 100 µM (inactive) | > 100 µM (inactive) |  | > 100 µM (inactive) | 45.8 µM (inactive) | > 100 µM (inactive) | > 100 µM (inactive) | 94 µM (inactive) | 36.9 µM (inactive) | 64.3 µM (inactive) | > 100 µM (inactive) | > 100 µM (inactive) | 81.5 µM (inactive) | > 100 µM (inactive) | 95.3 µM (inactive) | > 100 µM (inactive) |
